6 molecules from patent US20250243208A1, “BICYCLIC HETEROCYCLES AS MRGPRX2 ANTAGONISTS” (Incyte Corporation, priority 2024, published 2025) can be followed below.

Assay [1] deals with T1, MRGPRX2 (Homo sapiens, UniProt Q96LB1).
T1 sequence (Q96LB1 1-330): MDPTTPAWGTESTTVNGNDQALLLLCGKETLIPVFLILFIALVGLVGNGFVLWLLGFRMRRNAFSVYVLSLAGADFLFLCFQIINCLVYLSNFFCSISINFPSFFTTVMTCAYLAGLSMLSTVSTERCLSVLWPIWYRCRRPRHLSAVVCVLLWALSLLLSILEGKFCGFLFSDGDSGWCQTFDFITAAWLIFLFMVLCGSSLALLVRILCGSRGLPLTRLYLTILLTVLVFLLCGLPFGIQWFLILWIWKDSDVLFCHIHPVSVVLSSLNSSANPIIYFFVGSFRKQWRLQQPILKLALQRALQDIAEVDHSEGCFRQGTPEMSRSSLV
Kind of assay: MRGPRX2 FLIPR calcium mobilization assay. Format: cell-based. To be noted: CHO-K1 cells, agonist Cortistatin-14 at EC80, Ca2+ release. Also on record: host or cells: CHO-K1. On the procedure:
Example A. MRGPRX2 FLIPR Calcium Mobilization Assay
Chinese hamster ovary (CHO-K1) cells stably expressing human MRGPRX2 were purchased from Genescript (Piscataway, NJ). The cells were maintained in culture medium (Ham's F-12K) containing 10% (v/v) FBS, 200 μg/mL Zeocin, 100 units/mL penicillin G and 100 μg/mL streptomycin (Life Technologies, Carlsbad, CA). For the assay, the cells were harvested and resuspended with culture medium without Zeocin before plating at 8000 cells per well in 20 μL in 384-well black clear bottom cell culture plates (VWR, Radnor, PA). […] Ca^2+ release was measured with FLIPR Penta with 10 s basal fluorescence measurement, then 12.5 μL of 5× agonist Cortistatin-14 (Tocris, Minneapolis, MN) at final concentration corresponding to the EC80 were added followed with continued fluorescence signal monitoring for an additional 110 s. The base line adjusted (median of first 10s base line) max value of the Relative Fluorescence Unit (RFU) was plotted against compound concentrations. […]
(In general: Calcium flux is commonly read through the fluorescence of an indicator in the cells.)

Assay [2] has as its target T1, MRGPRX2. The experiment in a line: MRGPRX2 β-Arrestin recruitment assay (PathHunter CHO-K1). The format is cell-based. Also on record: host or cells: PathHunter CHO-K1. To be noted: PathHunter CHO-K1 cells, agonist Cortistatin 14 0.25 μM. From the text:
Example C: MRGPRX2 β-Arrestin Assay
This assay measures compound inhibition of β-Arrestin recruitment, which is part of the G protein-independent pathway that results from the ligand-activated GPCR phosphorylation by specific GPCR kinases. The PathHunter CHO-K1 MRPGRX2 B-Arrestin Cell line stably expressing ProLink tagged MRGPRX2 and Enzyme Acceptor Tagged B-Arrestin was purchased from Eurofins DiscoverX, (Fremont, CA).
The cells were maintained in culture medium from the Europhins DiscoverX Cell Culture Kit-107 which includes FBS, hygromycin B and G418. For the assay, the cells were harvested and were resuspended with Cell Plating Reagent 2 (Eurofins DiscoverX). Cells were added 10000 cells in 25 μL/well to a 384-well black cell culture plate (Greiner VWR, Radnor, PA) which contained 125 nL/well of compound at a selected serially diluted concentration range or DMSO. The plate was incubated at 37° C. with 5% CO2 for 1 h. 2 μL/well of agonist Cortistatin 14 was diluted in Protein Dilution Buffer, (Eurofins DiscoverX) for a final concentration of 0.25 μM, was added and the plate was incubated at 37° C. with 5% CO2 for 90 min. 14 μL/well of Detection Reagent Mix (PathHunter Detection Kit, Eurofins DiscoverX) was added to the plates and further incubated for 1 h in the dark. Plates were read on the PHERAstar microplate reader (BMG Labtech Cary, NC) measuring luminescence 0.1 to 1 s per well. Data was normalized using DMSO only wells and wells with high concentration of reference antagonist as controls. Compound IC50 curves were globally fitted with 3- or 4-parameter Hill equation in a Genedata Screener (Genedata Basel, Switzerland).
(In general: Recruitment of arrestin is a read-out of receptor activation apart from second messengers.)

Assay [3] deals with T1, MRGPRX2. The experiment in a line: MRGPRX2 IP1 HTRF assay. The arrangement: host or cells: CHO-K1. Particulars: CHO-K1 cells, agonist Cortistatin 14 1 μM, IP1 accumulation. Format: cell-based. From the text: Example B: MRGPRX2 IP1 HTRF Assay
This assay measures compound inhibition of myo-Inositol 1 phosphate (IP1) accumulation in CHO-K1 cells. Chinese hamster ovary (CHO-K1) cells stably expressing human MRGPRX2 were purchased from GenScript (Piscataway, NJ).
For the HTRF IP1 determination, an IP-One GqKit (Perkin Elmer Cisbio, Waltham, MA), which includes all reagents and buffers in this protocol, was used. The cells were maintained in culture medium (Ham's F-12K) containing 10% (v/v) FBS, and 200 μg/mL Zeocin. For the assay, the cells were harvested and resuspended in culture medium with 2% FBS and without Zeocin, then were passed through a 40 μm filter. Cells were added at 20000 cells in a 5 μL/well to a 384-well white small volume cell culture plate (Greiner VWR, Radnor, PA) which contained 50 nL/well of test compound serially diluted at a selected concentration range in DMSO. 5 μL/well of prepared 2× Stimulation Buffer2 was then added to plates and was incubated at 37° C. with 5% CO2 for 1 h. 5 μL/well of agonist Cortistatin 14 (Bio-TechneR&D Systems, Minneapolis, MN) in 1× Stimulation Buffer 2, for a 1 μM final concentration, was then added to plates and incubated at 37° C. with 5% CO2 for 1 h. 6 μL/well of 1:20 diluted Detection Reagent Mix (d2 and Cryptate) was added to the plates and incubated for 1 h in the dark. Plates were read on the PHERAstar microplate reader (BMG Labtech Cary, NC) to determine the HTRF ratio of the acceptor and donor emission signals. The IP1 concentrations were calculated from a standard curve following the IP-One GQ kit instructions. Wells with DMSO only and wells with high concentration of reference antagonist were used as controls for normalization. Compound IC50 curves were globally fitted with 3- or 4-parameter Hill equation in a Genedata Screener (Genedata Basel, Switzerland).
On the technique in general: In TR-FRET formats the signal depends on donor and acceptor labels being close together.

Assay [4] addresses T1, MRGPRX2. The experiment in a line: potency comparison of separated isomers (assay not stated). Particulars: compared with the other separated diastereomer/enantiomer.

Molecules are shown by their SMILES.

In the case of `CC(CNc1cc(C(F)(F)F)nc2cc(C(F)(F)F)nn12)(c1ccc(F)cc1)C1CNC1` (racemic) [Example 13, N-(2-(Azetidin-3-yl)-2-(4-fluorophenyl)propyl)-2,5-bis(trifluoromethyl)pyrazolo[1,5-a]pyrimidin-7-amine], the IC50 at MRGPRX2 [1] and on MRGPRX2 [2] was 0.1 to 100 nM each time.
Take `CC(CNc1cc(C(F)(F)F)nc2cc(C(F)(F)F)nn12)(c1ccc(F)cc1)C1CN(/C(N)=N/C#N)C1` (racemic) [Example 14, 3-(1-((2,5-Bis(trifluoromethyl)pyrazolo[1,5-a]pyrimidin-7-yl)amino)-2-(4-fluorophenyl)propan-2-yl)-N′-cyanoazetidine-1-carboximidamide]: the IC50 at MRGPRX2 [1], on MRGPRX2 [3] and on MRGPRX2 [2] was 0.1 to 100 nM each time.
Consider `CC(CNc1cc(C(F)(F)F)nc2cc(C(F)(F)F)nn12)(c1ccc(F)cc1)C1CCN(C(=O)NCCO)C1` (single isomer, unassigned) [Example 16, 3-(1-((2,5-Bis(trifluoromethyl)pyrazolo[1,5-a]pyrimidin-7-yl)amino)-2-(4-fluorophenyl)propan-2-yl)-N-(2-hydroxyethyl)pyrrolidine-1-carboxamide], for which, on MRGPRX2 [4], the “relative potency of the separated isomer” value was “more potent”. The 50% inhibitory concentration (IC50) on MRGPRX2 [3] and on MRGPRX2 [2] was 0.1 to 100 nM in each case.
With `CC(CNc1cc(C(F)(F)F)nc2cc(C(F)(F)F)nn12)(c1ccc(F)cc1)C1CCN(CC(N)=O)C1` (single isomer, unassigned) [Example 17, 2-(3-(1-((2,5-Bis(trifluoromethyl)pyrazolo[1,5-a]pyrimidin-7-yl)amino)-2-(4-fluorophenyl)propan-2-yl)pyrrolidin-1-yl)acetamide], the “relative potency of the separated isomer” value on MRGPRX2 [4] is “more potent”. In addition, the IC50 on MRGPRX2 [3] and at MRGPRX2 [2] was 0.1 to 100 nM throughout.
Turning to `O=C1CC2(CN1)CN(C(CNc1cc(C(F)(F)F)nc3cc(C(F)(F)F)nn13)c1ccc(F)cc1)C2` (single isomer, unassigned) [Example 36, 2-(2-((2,5-Bis(trifluoromethyl)pyrazolo[1,5-a]pyrimidin-7-yl)amino)-1-(4-fluorophenyl)ethyl)-2,6-diazaspiro[3.4]octan-7-one], the “relative potency of the separated isomer” value at MRGPRX2 [4] is on record as “active”. Moreover, on MRGPRX2 [2], the IC50 fell in the range of 0.1 to 100 nM.
The matching figures for `O=C1NCC2(CN(C(CNc3cc(C(F)(F)F)nc4cc(C(F)(F)F)nn34)c3ccc(F)cc3)C2)N1` (single isomer, unassigned) [Example 37, 2-(2-((2,5-Bis(trifluoromethyl)pyrazolo[1,5-a]pyrimidin-7-yl)amino)-1-(4-fluorophenyl)ethyl)-2,5,7-triazaspiro[3.4]octan-6-one]: “active” and 0.1 to 100 nM.

Usually IC50 stands for the concentration that inhibits the measured activity by half.
